From US20010044449A1, “REMEDIES FOR DRUG ADDICTION” (priority 1997, published 2001)
Counter-ions that a name gives are not always drawn. Marks after values point to notes of the source that are not given here.

Tests used:
[1] = system: Sprague Dawley strain (SD strain) male rats; test: Conditioned place preference (CPP) method, psychic dependence induced by cocaine
[2] = system: Sprague Dawley strain (SD strain) male rats; test: Conditioned place preference (CPP) method, psychic dependence induced by morphine; conditions: for Psychic dependence and aversion of compound alone (period in drug- or solvent-conditioned box): compound alone vs solvent control group
[3] = system: ddY strain male mouse; test: Naloxone-induced withdrawal syndrome in morphine-dependent mouse (physical dependence); format: in vivo; conditions: for Blepharoptosis: numbers of mouse manifesting withdrawal syndrome/numbers of total mouse / Diarrhea: numbers of mouse manifesting withdrawal syndrome/numbers of total mouse / Fore paw tremor: numbers of mouse manifesting withdrawal syndrome/numbers of total mouse / Jumping: numbers of mouse manifesting withdrawal syndrome/numbers of total mouse / Rearing: numbers of mouse manifesting withdrawal syndrome/numbers of total mouse / Wobbling: numbers of mouse manifesting withdrawal syndrome/numbers of total mouse: naloxone 3 mg/kg
[4] = system: SD strain male rats; test: Mecamylamine-induced nicotine withdrawal aversion (CPP operant boxes); format: in vivo, rat
Experimental: Animals used were SD strain male rats in this experiment. Experiments used were CPP operant boxes. Experiments were performed by using an aversive model in a nicotine withdrawal syndrome induced by mecamylamine, that is, a nicotine receptor antagonist. (Tsutomu Suzuki, Molecular Medicine, 32, 140 (1995); Suzuki, T. et al., Eur. J. Pharm., 314, 281 (1996); Maldonado, R. et al., J. Pharmacol. Exp. Ther., 261, 669 (1992)). Mini-osmotic pump (Alzet 2001) injected with nicotine (1 μl/hr, for seven days) was implanted under dorsal skin of the rats. An aqueous solution at a concentration of 121.4 mg/ ml was prepared so that a nicotine dose was adjusted to 10 mg/kg/day. Then, the aqueous solution was filled into the mini-osmotic pump. The rats were given conditioning training by the following counter-balance method. In the morning of the seventh day after the implantation of the mini-osmotic pump, mecamylamine (1 mg/ml), that is, nicotine receptor antagonist or physiological saline was subcutaneously injected. Then, the rats were placed in one compartment for 60 minutes. […] The periods in which the rats remained in each compartment colored white or black were measured for 15 minutes.

[5] = system: dopamine release in the nucleus accumbens; test: High K+ stimulated dopamine release from nucleus accumbens slices (HPLC-ECD); format: cell-based; conditions: rat nucleus accumbens slices, 20 mM high K+ stimulation; FIG. 11
[6] = system: Rats; test: Cocaine drug discrimination test (feeding behavior with lever pressing); format: in vivo, rat
[7] = system: rats with nicotine dependence; conditions: Malin et al. 1993; cited from earlier work
[8] = system: chronic smokers; conditions: for three hours, double blind and cross-over test vs placebo; Karras et al. 1980; cited from earlier work
[9] = cocaine 10 mg/kg i.p. in combination with compound 0.1 mg/kg s.c., FIGS. 5 and 6
[10] = morphine 3 mg/kg s.c. in combination with compound 0.1 mg/kg s.c., FIGS. 1 and 2
[11] = Compound 3 0.003 mg/kg s.c. with morphine
[12] = Compound 3 0.01 mg/kg s.c. with morphine
[13] = Compound 3 0.03 mg/kg s.c. with morphine

17-(cyclopropylmethyl)-3,14β-dihydroxy-4,5α-epoxy-6β-[N-methyl-trans-3-(methoxycinnamide) morphinan tartrate [Compound 5]
Development of drug dependence induced by cocaine (period rats remained in drug-conditioned box) [1, 9]: inhibited the development of drug dependence induced by cocaine | Psychic dependence and aversion of compound alone (period in drug- or solvent-conditioned box) [1]: did not produce psychic dependence and aversion

CN(C(=O)C#Cc1ccc(C(F)(F)F)cc1)[C@@H]1CC[C@@]2(O)[C@H]3Cc4ccc(O)c5c4[C@@]2(CCN3CC2CC2)[C@H]1O5.O=C(O)/C=C\C(=O)O [Compound 1, 17-(cyclopropylmethyl)-3,14β-dihydroxy-4,5α-epoxy-6β-[N-methyl-3-(4-trifluoromethylphenyl)propiolamide] morphinan maleate]
Psychic dependence and aversion of compound alone (period in drug- or solvent-conditioned box) [2]: did not develop psychic dependence and aversion | Development of drug dependence caused by morphine (period rats remained in drug-conditioned box) [2, 10]: inhibited the development of drug dependence caused by morphine | Development of drug dependence induced by cocaine (period rats remained in drug-conditioned box) ([1]; cocaine 4 mg/kg i.p. in combination with Compound 1 0.2 mg/kg i.p., FIG. 7): inhibited the development of drug dependence induced by cocaine | Psychic dependence and aversion of compound alone (period in drug- or solvent-conditioned box) [1]: did not produce psychic dependence and aversion

Cc1cccc(/C=C/C(=O)N(C)[C@@H]2CC[C@@]3(O)[C@H]4Cc5ccc(O)c6c5[C@@]3(CCN4CC3CC3)[C@H]2O6)c1 [Compound 2, 17-(cyclopropylmethyl)-3,14β-dihydroxy-4,5α-epoxy-6β-(N-methyl-3-methylcinnamide) morphinan hydrochloride]
Psychic dependence and aversion of compound alone (period in drug- or solvent-conditioned box) [2]: did not develop psychic dependence and aversion | Development of drug dependence caused by morphine (period rats remained in drug-conditioned box) [2, 10]: inhibited the development of drug dependence caused by morphine

CN(C(=O)/C=C/c1ccoc1)[C@@H]1CC[C@@]2(O)[C@H]3Cc4ccc(O)c5c4[C@@]2(CCN3CC2CC2)[C@H]1O5 [Compound 3, 17-(cyclopropylmethyl)-3,14β-dihydroxy-4,5α-epoxy-6β-[N-methyl-trans-3-(3-furyl)acrylamide] morphinan hydrochloride]
Incidence rates of jumping, shaking, and diarrhea ([3]; 0.03 mg/kg, compared with morphine alone group): significantly decreased | Body weight reduction (withdrawal) ([3]; 0.01 or 0.03 mg/kg, compared with morphine alone group, FIG. 4): significant suppression of body weight reduction | Blepharoptosis: numbers of mouse manifesting withdrawal syndrome/numbers of total mouse [3, 11]: 10/10 | Diarrhea: numbers of mouse manifesting withdrawal syndrome/numbers of total mouse [3, 11]: 7/10 | Fore paw tremor: numbers of mouse manifesting withdrawal syndrome/numbers of total mouse [3, 11]: 9/10 | Jumping: numbers of mouse manifesting withdrawal syndrome/numbers of total mouse [3, 11]: 3/10 | Rearing: numbers of mouse manifesting withdrawal syndrome/numbers of total mouse [3, 11]: 10/10 | Wobbling: numbers of mouse manifesting withdrawal syndrome/numbers of total mouse [3, 11]: 7/10 | Blepharoptosis: numbers of mouse manifesting withdrawal syndrome/numbers of total mouse [3, 12]: 10/10 | Diarrhea: numbers of mouse manifesting withdrawal syndrome/numbers of total mouse [3, 12]: 6/10 | Fore paw tremor: numbers of mouse manifesting withdrawal syndrome/numbers of total mouse [3, 12]: 10/10 | Jumping: numbers of mouse manifesting withdrawal syndrome/numbers of total mouse [3, 12]: 5/10 | Rearing: numbers of mouse manifesting withdrawal syndrome/numbers of total mouse [3, 12]: 7/10 | Wobbling: numbers of mouse manifesting withdrawal syndrome/numbers of total mouse [3, 12]: 5/10 | Blepharoptosis: numbers of mouse manifesting withdrawal syndrome/numbers of total mouse [3, 13]: 10/10 | Diarrhea: numbers of mouse manifesting withdrawal syndrome/numbers of total mouse [3, 13]: 3/10* | Fore paw tremor: numbers of mouse manifesting withdrawal syndrome/numbers of total mouse [3, 13]: 7/10 | Jumping: numbers of mouse manifesting withdrawal syndrome/numbers of total mouse [3, 13]: 3/10* | Rearing: numbers of mouse manifesting withdrawal syndrome/numbers of total mouse [3, 13]: 8/10 | Wobbling: numbers of mouse manifesting withdrawal syndrome/numbers of total mouse [3, 13]: 3/10* | Naloxone-induced withdrawal syndrome ([3]; simultaneous administration with morphine, 0.003-0.03 mg/kg s.c.): relieved by the simultaneous administration of Compound 3 in a dose-dependent manner | Aversive effect induced by mecamylamine (nicotine withdrawal) ([4]; pretreatment 30 μg/kg vs physiological saline pretreatment): significantly inhibited the aversive effect | Aversive effect induced by mecamylamine (nicotine withdrawal) ([4]; pretreatment 10 or 30 μg/kg s.c., 30 minutes before mecamylamine, FIG. 10): inhibited by the pretreatment with Compound 3 (10 or 30 μg/kg) in a dose dependent manner | Psychic dependence and aversion of compound alone (period in drug- or solvent-conditioned box) [2]: did not produce psychic dependence and aversion | Development of drug dependence caused by morphine (period rats remained in drug-conditioned box) ([2]; morphine 5 mg/kg s.c. in combination with Compound 3 0.1 or 0.03 mg/kg s.c., FIG. 3): inhibited the development of drug dependence caused by morphine | Dopamine release in the nucleus accumbens [5]: inhibited dopamine release in the nucleus accumbens | Rates of feeding behavior with lever pressing (cocaine discrimination) ([6]; Compound 3 10 μg/kg with cocaine 1.25, 2.5, or 5 mg/kg vs saline + cocaine, FIG. 8): significantly decreased | Inhibitory effect of cocaine discrimination ([6]; Compound 3 20 μg/kg with cocaine, compared with 10 μg/kg): enhanced

Cc1cccc(C#CC(=O)N(C)[C@@H]2CC[C@@]3(O)[C@H]4Cc5ccc(O)c6c5[C@@]3(CCN4CC3CC3)[C@H]2O6)c1 [Compound 4, 17-(cyclopropylmethyl)-3,14β-dihydroxy-4,5α-epoxy-6β-[N-methyl-3-(3-methylphenyl)propiolamide] morphinan hydrochloride]
Development of drug dependence induced by cocaine (period rats remained in drug-conditioned box) [1, 9]: inhibited the development of drug dependence induced by cocaine | Psychic dependence and aversion of compound alone (period in drug- or solvent-conditioned box) [1]: did not produce psychic dependence and aversion

CN1CC[C@]23c4c5ccc(O)c4O[C@H]2[C@@H](O)C=C[C@H]3[C@H]1C5 [morphine, reference compound]
Withdrawal syndrome after naloxone administration ([3]; morphine alone 8 to 45 mg/kg s.c. twice a day for five days, naloxone 3 mg/kg s.c.): withdrawal syndrome was recognized | Withdrawal syndrome in rats with nicotine dependence [7]: inhibits the withdrawal syndrome

C=CCN1CC[C@]23c4c5ccc(O)c4O[C@H]2C(=O)CC[C@@]3(O)[C@H]1C5 [naloxone]
Withdrawal syndrome in rats with nicotine dependence [7]: accelerates a withdrawal syndrome | Intake of tobacco of chronic smokers [8]: effective for a reduction in intake of tobacco

Oc1ccc2c3c1O[C@H]1c4[nH]c5c(c4C[C@@]4(O)[C@@H](C2)N(CC2CC2)CC[C@]314)C[C@@]1(O)[C@H]2Cc3ccc(O)c4c3[C@@]1(CCN2CC1CC1)[C@H]5O4 [nor-BNI, norbinaltorphimine, reference compound]
Antagonism of the inhibitory effect caused by Compound 3 ([2]; pretreatment 3 mg/kg, morphine 5 mg/kg s.c. + Compound 3 0.03 mg/kg s.c.): significantly antagonized | Antagonism of the inhibitory effect of cocaine discrimination of Compound 3 ([6]; nor-BNI pretreatment, Compound 3 0.02 mg/kg + cocaine, FIG. 9): antagonized
